Laboratory results taken from US11512079B2, “Heterocycle substituted pyridine derivative antifungal agents” (Amplyx Pharmaceuticals, Inc., priority 2017, dated 2022).
In brackets after ≈: the same amount, converted by molar mass.

Tests used:
Format in all cases: cell-based
[1] = tested on: Cryptococcus gattii; experiment: In vitro antifungal assay (Example IX), microdilution broth, MIC; conditions: minimum inhibitory concentration (≥50% inhibition), 35° C., 72 h (Cryptococcus), RPMI1640
Method: Preparation of Fungal Suspension. C. albicans 90028 and C. neoformans H99 strains were streaked from frozen stocks at −80° C. onto Sabouraud Dextrose Agar (SDA) plates. These were allowed to grow for 24 h (C. albicans) and 48 h (C. neoformans) at 35° C. before using them in the assay. 5-6 individual colonies were picked and diluted into sterile water to obtain a fungal suspension. The cell density of the suspension was determined and the culture diluted with RPMI1640 medium to obtain a fungal suspension of 2.5×10^3 cells/mL. The suspension was used in the MIC measurement as described below.
Preparation of Compound Stocks and Intermediate Dilutions: The compounds were weighed and DMSO was added to prepare a 10 mg/mL stock. The solutions were mixed by vortexing and sonication at 37° C. for 5-10 mins. The resulting solutions were sterile filtered using a PTFE filter, and aliquoted (12 μL or as needed) and stored at −20° C. Intermediate compound dilutions were prepared in sterile polypropylene tubes in 100% DMSO. The compound stock solution was first diluted in DMSO to obtain a concentration of […] to 0.19 μg/mL.
MIC/MEC Measurement: 99 μL 1 of the fungal suspension in RPMI1640 prepared as above was added to each well of a 96-well round bottom assay plate. 1 μL of the intermediate compound dilutions (200-0.19 μg/mL) were added to wells of the plate. This led to a 100-fold dilution of the intermediate dilutions resulting in a final compound concentration of 2-0.0019 μg/mL in the plate. 1 μL of DMSO was added to “No drug” control wells. The solutions were mixed by shaking on a plate shaker for 10 mins and plates incubated at 35° C. for 40-48 h (C. albicans, A. fumigatus, R. pusillus) and 72 h (Cryptococcus). […] This was validated by thorough mixing and reading at 600 nm on a microplate reader. The minimum concentration that led to shortening of hyphae as compared to hyphal growth in DMSO control wells was determined as the minimum effective concentration (MEC) for A. fumigatus and R. pusillus (as read for echinocandins). The use of the MIC and MEC endpoints against yeasts and molds, respectively has been described by Pfaller M A, Duncanson F, Messer S A, Moet G J, Jones R N, Castanheira M. Antimicrob Agents Chemother. 2011. 55(11):5155-8. In vitro activity of a novel broad-spectrum antifungal, E1210, tested against Aspergillus spp. determined by CLSI and EUCAST broth microdilution methods. Results are shown in Table 2, and the letters indicate the following ranges in μg/mL: […]

[2] = tested on: Cryptococcus neoformans H99; experiment: as above; conditions: minimum inhibitory concentration (≥50% inhibition), 35° C., 72 h, RPMI1640
Summary of the method: (§1)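 Yeast inocula (2.5×10^3 cells/mL, RPMI1640) were exposed to twofold compound series reaching 2-0.0019 μg/mL final, per CLSI yeast methodology. Incubation at 35° C. ran 40-48 h for Candida albicans 90028 and 72 h for Cryptococcus neoformans H99. MIC endpoints were confirmed by absorbance at 600 nm.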

[3] = tested on: Candida albicans 90028; experiment: as above; conditions: minimum inhibitory concentration (≥50% inhibition), 35° C., 40-48 h, RPMI1640
Summary of the method: as §1

[4] = tested on: Rhizomucor pusillus 46342; experiment: In vitro antifungal assay (Example IX), microdilution broth, MEC; conditions: minimum effective concentration (shortening of hyphae), 35° C., 40-48 h, RPMI1640
Summary of the method: (§2)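 Read-out is the minimum effective concentration: lowest compound level causing shorter hyphae than in DMSO controls, echinocandin-style. Broth microdilution used conidia or spores harvested from agar plates, cleared of mycelium and clumps, at a final 1-2×10^4 spores/mL in RPMI1640.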

[5] = tested on: Aspergillus fumigatus MYA3626; experiment: as above; conditions: minimum effective concentration (shortening of hyphae), 35° C., 40-48 h, RPMI1640
Summary of the method: as §2

| SMILES | MIC [1] | MIC [2] | MIC [3] | minimal effective concentration [4] | minimal effective concentration [5] |
| --- | --- | --- | --- | --- | --- |
| Nc1ncccc1-c1cc(Cc2ccc(Cn3cc(F)cn3)cc2)no1 [compound 4, 3-(3-(4-((4-fluoro-1H-pyrazol-1-yl)methyl)benzyl)isoxazol-5-yl)pyridin-2-amine] | 0.1 to 1 µg/mL (≈ 0.286 to 2.86 µM) | 0.1 to 1 µg/mL (≈ 0.286 to 2.86 µM) | 0.1 to 1 µg/mL (≈ 0.286 to 2.86 µM) | 0.1 to 1 µg/mL | 0.01 to 0.1 µg/mL |
| Nc1ncccc1-c1cc(Cc2ccc(Cn3cc(C(F)(F)F)cn3)cc2)no1 [compound 5, 3-(3-(4-((4-(trifluoromethyl)-1H-pyrazol-1-yl)methyl)benzyl)isoxazol-5-yl)pyridin-2-amine] | 0.1 to 1 µg/mL (≈ 0.25 to 2.5 µM) | 0.1 to 1 µg/mL (≈ 0.25 to 2.5 µM) | 0.1 to 1 µg/mL (≈ 0.25 to 2.5 µM) | 0.1 to 1 µg/mL | 0.1 to 1 µg/mL |
| Nc1ncccc1-c1cc(Cc2ccc(Cc3ccccc3)cc2)no1 [compound 8, 3-(3-(4-benzylbenzyl)isoxazol-5-yl)pyridin-2-amine] | ≤ 0.01 µg/mL | 0.01 to 0.1 µg/mL (≈ 0.0293 to 0.293 µM) | 0.1 to 1 µg/mL (≈ 0.293 to 2.93 µM) | 0.1 to 1 µg/mL | 0.1 to 1 µg/mL |
| Nc1ncccc1-c1cc(Cc2ccc(Cc3cccnc3)cc2)no1 [compound 9, 3-(3-(4-(pyridin-3-ylmethyl)benzyl)isoxazol-5-yl)pyridin-2-amine] | 0.01 to 0.1 µg/mL (≈ 0.0292 to 0.292 µM) | 0.1 to 1 µg/mL (≈ 0.292 to 2.92 µM) | 0.01 to 0.1 µg/mL (≈ 0.0292 to 0.292 µM) | 0.1 to 1 µg/mL | 0.1 to 1 µg/mL |
| Nc1ncccc1-c1cc(Cc2ccc(Cc3cn[nH]c3)cc2)no1 [compound 10, 3-(3-(4-((1H-pyrazol-4-yl)methyl)benzyl)isoxazol-5-yl)pyridin-2-amine] | 0.1 to 1 µg/mL (≈ 0.302 to 3.02 µM) | 0.1 to 1 µg/mL (≈ 0.302 to 3.02 µM) | 0.1 to 1 µg/mL (≈ 0.302 to 3.02 µM) | > 1 µg/mL | 0.1 to 1 µg/mL |
| Cn1cc(Cc2ccc(Cc3cc(-c4cccnc4N)on3)cc2)cn1 [compound 11, 3-(3-(4-((1-methyl-1H-pyrazol-4-yl)methyl)benzyl)isoxazol-5-yl)pyridin-2-amine] | 0.1 to 1 µg/mL (≈ 0.29 to 2.9 µM) | 0.1 to 1 µg/mL (≈ 0.29 to 2.9 µM) | 0.1 to 1 µg/mL (≈ 0.29 to 2.9 µM) | > 1 µg/mL | 0.01 to 0.1 µg/mL |
| CCn1cc(Cc2ccc(Cc3cc(-c4cccnc4N)on3)cc2)cn1 [compound 12, 3-(3-(4-((1-ethyl-1H-pyrazol-4-yl)methyl)benzyl)isoxazol-5-yl)pyridin-2-amine] | 0.1 to 1 µg/mL (≈ 0.278 to 2.78 µM) | 0.1 to 1 µg/mL (≈ 0.278 to 2.78 µM) | 0.1 to 1 µg/mL (≈ 0.278 to 2.78 µM) | > 1 µg/mL | 0.01 to 0.1 µg/mL |
| Nc1ncccc1-c1cc(Cc2ccc(Cc3cnoc3)cc2)no1 [compound 14, 3-(3-(4-(isoxazol-4-ylmethyl)benzyl)isoxazol-5-yl)pyridin-2-amine] | 0.1 to 1 µg/mL (≈ 0.301 to 3.01 µM) | 0.1 to 1 µg/mL (≈ 0.301 to 3.01 µM) | 0.1 to 1 µg/mL (≈ 0.301 to 3.01 µM) | 0.1 to 1 µg/mL | 0.01 to 0.1 µg/mL |
| Nc1ncccc1-c1cc(Cc2ccc(Cc3cccc(F)n3)cc2)no1 [compound 15, 3-(3-(4-((6-fluoropyridin-2-yl)methyl)benzyl)isoxazol-5-yl)pyridin-2-amine] | 0.01 to 0.1 µg/mL (≈ 0.0277 to 0.277 µM) | 0.01 to 0.1 µg/mL (≈ 0.0277 to 0.277 µM) | 0.01 to 0.1 µg/mL (≈ 0.0277 to 0.277 µM) | 0.1 to 1 µg/mL | ≤ 0.01 µg/mL |
| Nc1ncccc1-c1cc(Cc2ccc(CC3=CCCC3)cc2)no1 [compound 17, 3-(3-(4-(cyclopent-1-en-1-ylmethyl)benzyl)isoxazol-5-yl)pyridin-2-amine] | 0.01 to 0.1 µg/mL (≈ 0.0302 to 0.302 µM) | 0.01 to 0.1 µg/mL (≈ 0.0302 to 0.302 µM) | 0.01 to 0.1 µg/mL (≈ 0.0302 to 0.302 µM) | 0.1 to 1 µg/mL | 0.01 to 0.1 µg/mL |
| Nc1ncccc1-c1cc(Cc2ccc(CCc3ccccc3)cc2)no1 [compound 18, 3-(3-(4-phenethylbenzyl)isoxazol-5-yl)pyridin-2-amine] | 0.1 to 1 µg/mL (≈ 0.281 to 2.81 µM) | 0.1 to 1 µg/mL (≈ 0.281 to 2.81 µM) | 0.01 to 0.1 µg/mL (≈ 0.0281 to 0.281 µM) | 0.1 to 1 µg/mL | 0.01 to 0.1 µg/mL |
| Nc1ncccc1-c1cc(Cc2ccc(Cc3ccnc(F)c3)cc2)no1 [compound 19, 3-(3-(4-((2-fluoropyridin-4-yl)methyl)benzyl)isoxazol-5-yl)pyridin-2-amine] | 0.01 to 0.1 µg/mL (≈ 0.0277 to 0.277 µM) | 0.01 to 0.1 µg/mL (≈ 0.0277 to 0.277 µM) | 0.01 to 0.1 µg/mL (≈ 0.0277 to 0.277 µM) | 0.1 to 1 µg/mL | 0.01 to 0.1 µg/mL |
| Nc1ncccc1-c1cc(Cc2ccc(Cc3ccnc(F)c3F)cc2)no1 [compound 20, 3-(3-(4-((2,3-difluoropyridin-4-yl)methyl)benzyl)isoxazol-5-yl)pyridin-2-amine] | 0.01 to 0.1 µg/mL (≈ 0.0264 to 0.264 µM) | 0.01 to 0.1 µg/mL (≈ 0.0264 to 0.264 µM) | 0.1 to 1 µg/mL (≈ 0.264 to 2.64 µM) | 0.1 to 1 µg/mL | 0.01 to 0.1 µg/mL |
| Nc1ncccc1-c1cc(Cc2ccc(C(O)c3ccccc3)cc2)no1 (stereo not drawn) [compound 22, (4-((5-(2-aminopyridin-3-yl)isoxazol-3-yl)methyl)phenyl) (phenyl)methanol] | 0.01 to 0.1 µg/mL (≈ 0.028 to 0.28 µM) | 0.1 to 1 µg/mL (≈ 0.28 to 2.8 µM) | 0.1 to 1 µg/mL (≈ 0.28 to 2.8 µM) | > 1 µg/mL | 0.1 to 1 µg/mL |
| Nc1ncccc1-c1cc(Cc2ccc(COC3CCCCC3)cc2)no1 [compound 23, 3-(3-(4-((cyclohexyloxy)methyl)benzyl)isoxazol-5-yl)pyridin-2-amine] | 0.01 to 0.1 µg/mL (≈ 0.0275 to 0.275 µM) | 0.1 to 1 µg/mL (≈ 0.275 to 2.75 µM) | 0.1 to 1 µg/mL (≈ 0.275 to 2.75 µM) | 0.1 to 1 µg/mL | 0.1 to 1 µg/mL |
| Cc1cc(COc2ccc(Cc3cc(-c4cccnc4N)on3)cc2)no1 [compound 26, 3-(3-(4-((5-methylisoxazol-3-yl)methoxy)benzyl)isoxazol-5-yl)pyridin-2-amine] | 0.1 to 1 µg/mL (≈ 0.276 to 2.76 µM) | 0.1 to 1 µg/mL (≈ 0.276 to 2.76 µM) | 0.1 to 1 µg/mL (≈ 0.276 to 2.76 µM) | > 1 µg/mL | 0.01 to 0.1 µg/mL |
| Nc1ncccc1-c1cc(Cc2ccc(OCc3ccc4ccccc4n3)cc2)no1 [compound 27, 3-(3-(4-(quinolin-2-ylmethoxy)benzyl)isoxazol-5-yl)pyridin-2-amine] | 0.1 to 1 µg/mL (≈ 0.245 to 2.45 µM) | 0.1 to 1 µg/mL (≈ 0.245 to 2.45 µM) | 0.1 to 1 µg/mL (≈ 0.245 to 2.45 µM) | > 1 µg/mL | > 1 µg/mL |
| Nc1ncccc1-c1cc(Cc2ccc(OCc3ncccn3)cc2)no1 [compound 28, 3-(3-(4-(pyrimidin-2-ylmethoxy)benzyl)isoxazol-5-yl)pyridin-2-amine] | 0.1 to 1 µg/mL (≈ 0.278 to 2.78 µM) | 0.1 to 1 µg/mL (≈ 0.278 to 2.78 µM) | 0.1 to 1 µg/mL (≈ 0.278 to 2.78 µM) | > 1 µg/mL | 0.1 to 1 µg/mL |
| Nc1ncccc1-c1cc(Cc2ccc(OCc3cnc4ccccc4n3)cc2)no1 [compound 30, 3-(3-(4-(quinoxalin-2-ylmethoxy)benzyl)isoxazol-5-yl)pyridin-2-amine] | > 1 µg/mL | > 1 µg/mL | 0.1 to 1 µg/mL (≈ 0.244 to 2.44 µM) | 0.1 to 1 µg/mL | > 1 µg/mL |
| Nc1ncccc1-c1cc(Cc2ccc(CNc3cccc(F)n3)cc2)no1 [compound 31, N-(4-((5-(2-aminopyridin-3-yl)isoxazol-3-yl)methyl)benzyl)-6-fluoropyridin-2-amine] | 0.1 to 1 µg/mL (≈ 0.266 to 2.66 µM) | 0.1 to 1 µg/mL (≈ 0.266 to 2.66 µM) | 0.01 to 0.1 µg/mL (≈ 0.0266 to 0.266 µM) | 0.1 to 1 µg/mL | 0.01 to 0.1 µg/mL |
| Nc1ncccc1-c1cc(Cc2ccc(CNc3ncccn3)cc2)no1 [compound 32, N-(4-((5-(2-aminopyridin-3-yl)isoxazol-3-yl)methyl)benzyl)pyrimidin-2-amine] | 0.1 to 1 µg/mL (≈ 0.279 to 2.79 µM) | 0.1 to 1 µg/mL (≈ 0.279 to 2.79 µM) | 0.01 to 0.1 µg/mL (≈ 0.0279 to 0.279 µM) | 0.1 to 1 µg/mL | 0.01 to 0.1 µg/mL |
